Laboratory results as given in article PMC5340297 (Bioorganic & medicinal chemistry letters, 2016).

Assays:
rM4 = target: T1, rM4 (Rattus norvegicus, UniProt P08485); test: Calcium mobilization assay with rM4/Gqi5-CHO cells, EC20 acetylcholine; type: cell-based; conditions: 9a vs 6
T1 sequence (P08485 1-478): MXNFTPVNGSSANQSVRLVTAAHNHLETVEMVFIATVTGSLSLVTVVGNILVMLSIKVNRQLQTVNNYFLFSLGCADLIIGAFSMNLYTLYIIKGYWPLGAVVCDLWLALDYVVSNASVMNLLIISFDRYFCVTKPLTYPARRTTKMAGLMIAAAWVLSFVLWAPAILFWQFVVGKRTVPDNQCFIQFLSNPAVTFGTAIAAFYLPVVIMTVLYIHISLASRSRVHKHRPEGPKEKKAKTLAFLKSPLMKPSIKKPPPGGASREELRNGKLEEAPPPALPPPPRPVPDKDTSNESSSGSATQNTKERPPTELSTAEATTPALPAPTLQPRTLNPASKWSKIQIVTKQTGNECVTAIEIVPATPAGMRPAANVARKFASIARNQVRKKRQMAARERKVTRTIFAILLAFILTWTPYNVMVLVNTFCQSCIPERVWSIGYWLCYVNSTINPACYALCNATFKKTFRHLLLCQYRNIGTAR

[1] = Rat brain:plasma partition coefficients; type: in vivo; conditions: 0.25 hr after IV cassette dose (0.20-0.25 mg/kg), male SD rat, n=1
Cytochrome P450 2D6 = Cytochrome P450 2D6 (Homo sapiens, UniProt P10635); test: Cytochrome P450 inhibition, 2D6; type: in vitro ADME
[2] = system: amphetamine-induced hyperlocomotion; conditions: rat, 0.75 mg/kg amphetamine s.c., n = 7-8 per dose group
human M1-3,5 = test: Muscarinic subtype selectivity, human M1-3,5; type: cell-based; conditions: read-out: EC50 at human M1-3,5; no activity
In vitro clearance, rat = conditions: predicted
DAT = DAT (Homo sapiens, UniProt Q01959); test: Off-target full CRC, DAT; type: binding
[3] = system: 68 GPCRs, ion channels and transporter; test: Eurofin Lead Profiling radioligand binding panel; conditions: 10 μM
hCav1 2 = hCav1 2 (Homo sapiens, UniProt Q13936); test: Off-target full CRC, hCav1 2; type: binding
5-HT3 = target: T2, 5-HT3 (Homo sapiens, UniProt P46098); test: Off-target full CRC, 5-HT3; type: binding
T2 sequence (P46098 24-478): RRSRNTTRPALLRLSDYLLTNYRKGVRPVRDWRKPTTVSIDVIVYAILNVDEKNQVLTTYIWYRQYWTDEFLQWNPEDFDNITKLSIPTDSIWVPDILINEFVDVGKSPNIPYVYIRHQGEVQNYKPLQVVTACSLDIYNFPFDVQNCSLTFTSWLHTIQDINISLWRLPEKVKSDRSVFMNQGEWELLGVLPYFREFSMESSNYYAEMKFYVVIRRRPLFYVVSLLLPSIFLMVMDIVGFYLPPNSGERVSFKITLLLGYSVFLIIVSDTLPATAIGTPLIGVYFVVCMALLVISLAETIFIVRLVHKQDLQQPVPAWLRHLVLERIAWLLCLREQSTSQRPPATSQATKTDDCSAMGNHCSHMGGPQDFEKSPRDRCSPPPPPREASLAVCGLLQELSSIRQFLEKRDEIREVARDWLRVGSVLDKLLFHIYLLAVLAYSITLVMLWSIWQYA

SERT = SERT (Homo sapiens, UniProt P31645); test: Off-target full CRC, SERT; type: binding
rat M1-3,5 = test: Muscarinic subtype selectivity, rat M1-3,5; type: cell-based; conditions: read-out: EC50 at rat M1-3,5; no activity
[4] = In vitro clearance, human; conditions: predicted
Ghrelin receptor = Ghrelin receptor (Homo sapiens, UniProt Q92847); test: Off-target full CRC, Ghrelin receptor; type: binding
BDZ = test: Off-target full CRC, BDZ; type: binding
GABA = test: Off-target full CRC, GABA; type: binding
[5] = system: amphetamine-induced hyperlocomotion; conditions: cited from earlier work
M4 = M4 PAM potency, 6 compared with 2; type: cell-based; conditions: 6 vs 2
[6] = Free fraction, 6 compared with 2; type: in vitro ADME; conditions: 6 vs 2

Cytochrome P450 2D6, sequence (P10635 whole entry): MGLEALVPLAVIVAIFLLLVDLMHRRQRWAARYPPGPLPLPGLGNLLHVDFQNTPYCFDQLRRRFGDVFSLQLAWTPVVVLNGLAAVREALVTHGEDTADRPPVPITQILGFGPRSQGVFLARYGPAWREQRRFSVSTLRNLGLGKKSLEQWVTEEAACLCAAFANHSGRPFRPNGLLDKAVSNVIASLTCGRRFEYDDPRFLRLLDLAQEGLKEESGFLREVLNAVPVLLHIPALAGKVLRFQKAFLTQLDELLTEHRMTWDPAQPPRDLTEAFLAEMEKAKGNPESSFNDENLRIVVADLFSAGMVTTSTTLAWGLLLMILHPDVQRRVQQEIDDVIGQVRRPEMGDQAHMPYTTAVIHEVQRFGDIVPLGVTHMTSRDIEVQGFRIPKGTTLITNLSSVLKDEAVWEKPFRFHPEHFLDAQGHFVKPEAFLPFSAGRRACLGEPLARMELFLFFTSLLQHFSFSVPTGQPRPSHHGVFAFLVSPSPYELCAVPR
DAT, sequence (Q01959 whole entry, species assumed): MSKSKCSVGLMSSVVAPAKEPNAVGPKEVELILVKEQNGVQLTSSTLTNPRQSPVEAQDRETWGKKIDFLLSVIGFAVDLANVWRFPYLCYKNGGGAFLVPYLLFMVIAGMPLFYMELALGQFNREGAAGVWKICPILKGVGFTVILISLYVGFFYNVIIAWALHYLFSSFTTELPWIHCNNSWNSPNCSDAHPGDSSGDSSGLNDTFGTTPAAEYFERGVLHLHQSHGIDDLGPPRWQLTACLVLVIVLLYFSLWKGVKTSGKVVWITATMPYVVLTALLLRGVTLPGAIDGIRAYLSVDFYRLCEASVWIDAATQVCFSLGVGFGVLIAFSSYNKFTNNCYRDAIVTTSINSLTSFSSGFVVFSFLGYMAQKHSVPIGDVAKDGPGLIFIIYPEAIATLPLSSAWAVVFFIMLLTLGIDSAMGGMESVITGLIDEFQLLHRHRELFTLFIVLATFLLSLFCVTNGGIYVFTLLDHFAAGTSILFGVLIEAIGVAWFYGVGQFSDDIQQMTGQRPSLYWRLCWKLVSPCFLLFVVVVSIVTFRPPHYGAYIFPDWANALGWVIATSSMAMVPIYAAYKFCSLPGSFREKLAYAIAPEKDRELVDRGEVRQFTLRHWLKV
SERT, sequence (P31645 whole entry, species assumed): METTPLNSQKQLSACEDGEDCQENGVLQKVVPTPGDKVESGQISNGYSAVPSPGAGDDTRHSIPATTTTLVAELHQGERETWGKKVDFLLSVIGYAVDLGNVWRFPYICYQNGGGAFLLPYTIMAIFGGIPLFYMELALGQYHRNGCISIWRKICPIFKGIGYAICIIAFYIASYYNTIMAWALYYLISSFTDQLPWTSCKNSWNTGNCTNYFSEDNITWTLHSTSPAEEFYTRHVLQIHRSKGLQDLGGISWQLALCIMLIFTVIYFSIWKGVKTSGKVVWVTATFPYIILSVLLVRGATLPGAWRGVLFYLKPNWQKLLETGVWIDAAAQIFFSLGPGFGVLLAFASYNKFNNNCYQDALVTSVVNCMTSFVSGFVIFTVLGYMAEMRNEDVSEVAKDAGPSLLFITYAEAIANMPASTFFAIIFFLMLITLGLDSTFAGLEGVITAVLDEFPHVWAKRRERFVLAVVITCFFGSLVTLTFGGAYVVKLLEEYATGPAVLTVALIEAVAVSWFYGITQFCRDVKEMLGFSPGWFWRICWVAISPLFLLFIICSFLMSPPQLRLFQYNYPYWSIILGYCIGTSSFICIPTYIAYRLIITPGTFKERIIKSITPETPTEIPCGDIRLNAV
Ghrelin receptor, sequence (Q92847 whole entry, species assumed): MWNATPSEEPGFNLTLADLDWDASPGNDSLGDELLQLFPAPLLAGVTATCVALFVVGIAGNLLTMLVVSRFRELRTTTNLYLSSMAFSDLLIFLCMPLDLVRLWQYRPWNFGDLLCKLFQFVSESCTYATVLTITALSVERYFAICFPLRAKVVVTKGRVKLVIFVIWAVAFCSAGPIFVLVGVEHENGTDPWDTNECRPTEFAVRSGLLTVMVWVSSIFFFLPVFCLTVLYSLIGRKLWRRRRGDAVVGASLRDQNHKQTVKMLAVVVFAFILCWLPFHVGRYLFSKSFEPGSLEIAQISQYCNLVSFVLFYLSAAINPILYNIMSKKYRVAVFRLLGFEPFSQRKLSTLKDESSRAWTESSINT

| Structure (SMILES) | Inhibition of CYP 2D6 (in words) (Cytochrome P450 2D6) | Full dose response AHL, result in words [2] | EC50 (human M1-3,5) [µM] | CLHEP, rat (In vitro clearance, rat) [mL/min/kg] | DAT ligand potency (full CRC) (DAT) [µM] | % inhibition at multiple off-targets in the Eurofin panel [3] [%] | 5-HT3 ligand potency (full CRC) (5-HT3) [µM] | SERT ligand potency (full CRC) (SERT) [µM] | EC50 (rat M1-3,5) [µM] | CLHEP, human [4] [mL/min/kg] | also measured |
| --- | --- | --- | --- | --- | --- | --- | --- | --- | --- | --- | --- |
| CSc1ccc(CNC(=O)c2sc3nnc(C)c(C)c3c2N)cc1 [9a] | – | – | – | – | – | – | – | – | – | – | Fold increase in rat M4 PAM potency relative to 6 (rM4): ~10 fold |
| Cc1nnc2sc(C(=O)NCc3ccc(S(=O)(=O)CF)cc3)c(N)c2c1C [9i] | – | – | – | – | – | – | – | – | – | – | Rat Kp (total brain:plasma partition coefficient) [1]: not detected in the CNS |
| Cc1nnc2sc(C(=O)NCc3ccc(S(=O)(=O)C(F)F)cc3)c(N)c2c1C [9j] | weak inhibition | efficacious in vivo | > 30 | 28.1 | 0.175 | > 50 | 1.6 | 0.6 | > 30 | 9.34 | hCav1 2 ligand potency (full CRC) (hCav1 2): 5.7 µM |
| Cc1nnc2sc(C(=O)NCc3ccc(S(F)(F)(F)(F)F)cc3)c(N)c2c1C [9l] | weak inhibition | efficacious in vivo | > 30 | 40.5 | 0.15 | > 50 | 1.5 | 0.52 | > 30 | 15.0 | Ghrelin receptor ligand potency (full CRC) (Ghrelin receptor): 6.5 µM; BDZ ligand potency (full CRC) (BDZ): 1.5 µM; GABA ligand potency (full CRC) (GABA): 2.1 µM |
| Cc1nnc2sc(C(=O)NCc3ccc(S(=O)(=O)C(F)(F)F)cc3)c(N)c2c1C [compound 5] | – | – | > 30 | 28.4 | – | – | – | – | > 30 | 10.2 | % inhibition at any of the 68 targets in the Eurofin panel [3]: ≤ 50%; % reversal in AHL (previously reported) ([5]; 10 mg/kg p.o.): 46%; Minimum effective dose (MED) in AHL ([5]; p.o.): 3 mg/kg |
| COc1ccc(CNC(=O)c2sc3nnc(C)c(C)c3c2N)cc1 [compound 6] | – | – | – | – | – | – | – | – | – | – | Fold enhancement of M4 PAM potency relative to 2 (M4): 4 fold; Fold increase of free fraction relative to 2 [6]: up to 9 fold |
